Laboratory results published in US20040258771A1 (priority 2001, published 2004).

Tests used:
[1] = tested on: mice; details: cited from earlier work
[2] = tested on: tumor growth; details: has been shown (prior knowledge); cited from earlier work
[3] = tested on: Ovarian cancer cells; experiment: Human cancer cell assessment, ovarian; type: cell-based
Excerpt: As a quick secondary screen, the additive alone and in combination with the target drug was examined in these human cancer cell lines. The results of TK-211 are shown as a specific example.

| SMILES | known reduction of cisplatin side effects [1] | effect on cisplatin efficacy [2] | Cell survival ([3]; 1 μg/ml) [%] | Cell survival ([3]; 2 μg/ml) [%] |
| --- | --- | --- | --- | --- |
| NCCCNCCSP(=O)(O)O [Amifostine] | only to slightly reduce weight loss and hypothermia | slight impairment of cisplatin efficacy |  |  |
| N.N.[Cl][Pt][Cl] [Cisplatin, cis-diamine-dichloroplatinum (II)] |  |  | 3 | 1 |
